Data: the supplement of paper PMC13380429

How the values were obtained:
Settings in all cases: 72 h
Caco-2 [1] = assay: cell viability relative to DMSO; higher = less toxic
HepG2 [2] = assay: as above
Calu-3 [3] = assay: as above
U2OS [4] = assay: as above
Caco-2 [5] = assay: relative viability EC50 (midpoint between 100% and the lowest measured viability); higher = less toxic
HepG2 [6] = assay: as above
Calu-3 [7] = assay: as above
U2OS [8] = assay: as above
Caco-2 [9] = assay: drug sensitivity score (DSS) for viability; higher = more toxic; extreme values may be limits of the assay
HepG2 [10] = assay: as above
Calu-3 [11] = assay: as above
U2OS [12] = assay: as above
Vero E6 [13] = assay: cell viability relative to DMSO; higher = less toxic
Vero E6 [14] = assay: drug sensitivity score (DSS) for viability; higher = more toxic; extreme values may be limits of the assay
Vero E6 [15] = assay: relative viability EC50 (midpoint between 100% and the lowest measured viability); higher = less toxic

| Structure (SMILES) | cell viability (Caco-2 [1]; 1 nM) [%] | cell viability (Caco-2 [1]; 10 nM) [%] | cell viability (Caco-2 [1]; 100 nM) [%] | cell viability (Caco-2 [1]; 1000 nM) [%] | cell viability (Caco-2 [1]; 10000 nM) [%] | cell viability (HepG2 [2]; 1 nM) [%] | cell viability (HepG2 [2]; 10 nM) [%] | cell viability (HepG2 [2]; 100 nM) [%] | cell viability (HepG2 [2]; 1000 nM) [%] | cell viability (HepG2 [2]; 10000 nM) [%] | cell viability (Calu-3 [3]; 1 nM) [%] | cell viability (Calu-3 [3]; 10 nM) [%] | cell viability (Calu-3 [3]; 100 nM) [%] | cell viability (Calu-3 [3]; 1000 nM) [%] | cell viability (Calu-3 [3]; 10000 nM) [%] | cell viability (U2OS [4]; 1 nM) [%] | cell viability (U2OS [4]; 10 nM) [%] | cell viability (U2OS [4]; 100 nM) [%] | cell viability (U2OS [4]; 1000 nM) [%] | cell viability (U2OS [4]; 10000 nM) [%] | relative viability EC50 (Caco-2 [5]) [µM] | relative viability EC50 (HepG2 [6]) [µM] | relative viability EC50 (Calu-3 [7]) [µM] | relative viability EC50 (U2OS [8]) [µM] | drug sensitivity score (Caco-2 [9]) | drug sensitivity score (HepG2 [10]) | drug sensitivity score (Calu-3 [11]) | drug sensitivity score (U2OS [12]) | cell viability (Vero E6 [13]; 1 nM) [%] | cell viability (Vero E6 [13]; 10 nM) [%] | cell viability (Vero E6 [13]; 100 nM) [%] | cell viability (Vero E6 [13]; 1000 nM) [%] | cell viability (Vero E6 [13]; 10000 nM) [%] | drug sensitivity score (Vero E6 [14]) | relative viability EC50 (Vero E6 [15]) [µM] |
| --- | --- | --- | --- | --- | --- | --- | --- | --- | --- | --- | --- | --- | --- | --- | --- | --- | --- | --- | --- | --- | --- | --- | --- | --- | --- | --- | --- | --- | --- | --- | --- | --- | --- | --- | --- |
| N#Cc1ccccc1OCC(O)CNCCNC(=O)Nc1ccccc1 (stereo unspecified) | 101 | 102 | 91.4 | 99.5 | 101 | 108 | 102 | 110 | 107 | 93.6 | 100 | 94.7 | 102 | 92.8 | 92.4 | 99.5 | 94.3 | 95.3 | 95.7 | 97.1 | > 10 | > 10 | > 10 | > 10 | 0 | 0 | 0 | 0 | – | – | – | – | – | – | – |
| COc1cc2c(N3CCN(C(=O)Nc4ccc(OC(C)C)cc4)CC3)ncnc2cc1OCCCN1CCCCC1 [tandutinib] | 113 | 102 | 112 | 105 | 98.2 | 110 | 112 | 112 | 109 | 84.1 | 109 | 97 | 94.7 | 108 | 111 | – | – | – | – | – | > 10 | > 10 | > 10 | – | 0 | 0.1 | 0 | – | – | – | – | – | – | – | – |
| COC(=O)C1=C(C)NC(C)=C(C(=O)OCC(C)C)C1c1ccccc1[N+](=O)[O-] (stereo unspecified) [nisoldipine] | 98.2 | 109 | 99.1 | 93.8 | 63.1 | 100 | 98.7 | 104 | 92.4 | 42.6 | 97.6 | 106 | 107 | 94.6 | 103 | 101 | 106 | 102 | 99.4 | 51.1 | – | 2.1 | > 10 | – | 2.8 | 4.4 | 0 | 2.6 | 100 | 101 | 102 | 94.6 | 60.7 | 2.8 | – |
| O=C1O[C@H](CO)[C@@H](O)[C@H](O)[C@H]1O [gluconolactone] | 109 | 106 | 102 | 95.1 | 101 | 90.9 | 103 | 92.2 | 91.2 | 94.5 | 99.6 | 90.5 | 100 | 97.2 | 105 | 106 | 102 | 104 | 98.9 | 106 | > 10 | > 10 | > 10 | > 10 | 0 | 0 | 0 | 0 | – | – | – | – | – | – | – |
| COc1cccc(-c2cc(NCc3ccc4c(c3)OCO4)nc(N)n2)c1 [BML-284] | 104 | 93.4 | 102 | 62.4 | 46.6 | 97.7 | 97.2 | 93.9 | 52.9 | 30.5 | 104 | 92.9 | 102 | 66.9 | 62.4 | 92.8 | 97 | 95.8 | 49.8 | 27.7 | 0.707 | 0.572 | – | 0.59 | 7.3 | 9.8 | 5.8 | 10.3 | 102 | 99.9 | 101 | 29.8 | 27.6 | 12.8 | 0.349 |
| O=C(Nc1ccc([N+](=O)[O-])cc1O)Nc1ccccc1Br | 98.6 | 103 | 102 | 77 | 40.5 | 89.9 | 101 | 89.7 | 92 | 32.5 | 102 | 98.2 | 88.4 | 108 | 59.3 | 98.3 | 99.6 | 96.9 | 87 | 36.6 | 1.2 | 2.19 | – | 1.72 | 6.4 | 5.1 | 1.6 | 5.6 | 101 | 98.3 | 94.5 | 85.7 | 34.8 | 5.9 | 1.66 |
| CCCCC(F)(F)[C@@]1(O)CC[C@H]2[C@@H](CC(=O)[C@@H]2CCCCCCC(=O)O)O1 [lubiprostone] | 108 | 101 | 101 | 103 | 97.8 | – | – | – | – | – | 106 | 102 | 111 | 98.6 | 98.8 | 104 | 102 | 104 | 99.8 | 104 | > 10 | – | > 10 | > 10 | 0 | – | 0 | 0 | – | – | – | – | – | – | – |
| CC[N+](CC)(CCCNC1=CC(=O)C(NCCC[N+](CC)(CC)Cc2ccccc2)=CC1=O)Cc1ccccc1 [benzoquinonium-dibromide] | 94.5 | 98.6 | 95.4 | 96.3 | 91.7 | 96.3 | 106 | 95.2 | 100 | 95 | 103 | 92.9 | 108 | 104 | 96.8 | 94.6 | 94.4 | 96.8 | 95.8 | 98.3 | > 10 | > 10 | > 10 | > 10 | 0 | 0 | 0 | 0 | – | – | – | – | – | – | – |
| C[C@@]12C[C@@]3(O)O[C@@H](O1)[C@]1(COC(=O)c4ccccc4)[C@H]3C[C@@]12O[C@@H]1O[C@H](CO)[C@@H](O)[C@H](O)[C@H]1O [paeoniflorin] | 103 | 101 | 96 | 93.5 | 96 | 100 | 100 | 102 | 107 | 95.9 | 91 | 98.6 | 107 | 87 | 98.7 | 101 | 99.8 | 104 | 102 | 101 | > 10 | > 10 | > 10 | > 10 | 0 | 0 | 0 | 0 | – | – | – | – | – | – | – |
| CCOP(=S)(OCC)Oc1cc(C)nc(C(C)C)n1 [dimpylate] | 102 | 95.4 | 103 | 93 | 93.2 | 92.9 | 104 | 106 | 101 | 96.8 | 106 | 100 | 99.3 | 97.7 | 96.3 | 104 | 102 | 102 | 97.9 | 99.2 | > 10 | > 10 | > 10 | > 10 | 0 | 0 | 0 | 0 | – | – | – | – | – | – | – |
| CC(=O)O/N=C1\C(=O)N(Cc2cc(Cl)ccc2Cl)c2ccc(Cl)cc21 | 97.3 | 92 | 104 | 91 | 83.9 | 97.9 | 97.7 | 104 | 108 | 86.9 | 103 | 90.7 | 93.9 | 98.4 | 61.8 | 100 | 99 | 97.7 | 96.6 | 97.3 | > 10 | > 10 | – | > 10 | 1 | 0 | 2.1 | 0 | 98.3 | 105 | 97.3 | 98.7 | 97.9 | 0 | > 10 |
| c1ccc(CCCCN2CCC(c3ccccc3)CC2)cc1 [4-PPBP] | 94.7 | 94.9 | 89.8 | 86.1 | 84.4 | 99.8 | 103 | 101 | 93.8 | 77.9 | 93 | 111 | 96.7 | 95.1 | 69.3 | 90.7 | 91.2 | 96.1 | 94.7 | 84.6 | > 10 | > 10 | – | > 10 | 1.4 | 1.6 | 2.2 | 0 | 100 | 102 | 102 | 99.7 | 90 | 0 | > 10 |
| Cc1ccnc(NC(=O)C(C)c2cccc(C(=O)c3ccccc3)c2)c1 (stereo unspecified) [piketoprofen] | 96.7 | 87.3 | 91.7 | 93.5 | 91.5 | 103 | 89.3 | 111 | 107 | 80.8 | – | – | – | – | – | 105 | 102 | 97.7 | 103 | 95.3 | > 10 | > 10 | – | > 10 | 0 | 0.3 | – | 0 | 98.3 | 98.8 | 99.8 | 106 | 96.1 | 0 | > 10 |
| Cc1cc(/C=C/C#N)cc(C)c1Nc1ccnc(Nc2ccc(C#N)cc2)n1 [rilpivirine] | 97.8 | 98 | 93.3 | 87.3 | 61.4 | 98.9 | 99.8 | 99.5 | 96.9 | 47.7 | 97 | 93.7 | 99.8 | 95.6 | 92.7 | 94.8 | 99.1 | 99.6 | 95.4 | 80.5 | – | 2.69 | > 10 | > 10 | 3.1 | 3.2 | 0 | 1.1 | 100 | 100 | 96.8 | 98.5 | 70.5 | 1.5 | – |
